Assay results taken from paper PMC6212833 (mBio, 2018).
Read-outs that look alike come from different tables or passages of the source. Marks after values point to notes of the source that are not given here.

How the values were obtained:
[1] = test system: B. mandrillaris; assay: Recrudescence assay on HFF-1 monolayer after drug treatment; type: cell-based, Balamuthia mandrillaris; conditions: for concentration that completely eliminated B. mandrillaris populations: 72 h treatment, no recovery after 28 days of coculture
[2] = Cytotoxicity dose response, U87; type: cell-based; conditions: human, U87 (glial) cells, unit not given in Table S3, drug concentrations in µM, read-out: CC50 U87 cell line
Protocol: (§1) B. mandrillaris trophozoites were seeded at 4,000 amoebae per well into opaque and clear-bottom 96-well plates (Corning). Homogenous populations of B. mandrillaris cysts generated by galactose induction were seeded at 4,000 amoebae per well into opaque 96-well plates. HFF-1 (fibroblast), H4 (glial), U87 (glial), HEK-293T (kidney), and Hep-G2 (liver) cells were seeded at 3,000 cells per well in opaque 96-well plates 24 h prior to addition of drug. Stocks of nitroxoline (Selleck Chemicals) were dissolved in 100% DMSO at 10 mM. Stocks of azithromycin (Selleck Chemicals), pentamidine isethionate (Selleck Chemicals), and miltefosine (Selleck Chemicals) were dissolved in water at 10 mM. Drug stocks were serially diluted in water to generate 12-point dilution series, which were then used to treat assay wells containing B. mandrillaris or human cells at final concentrations ranging from 0.39 µM to 400 µM in 100-µl total well volumes. Control wells were treated with vehicle (DMSO or water) at concentrations corresponding to the final vehicle concentrations in each drug dilution series. After incubation for 72 h, 50 µl of CTG was added to all assay wells. Luminescence was measured with a Promega GloMax-Multi+ plate reader 2, 4, and […] after CTG addition. All dose-response experiments were performed with at least three independent biological replicates. IC50 values were determined as previously described. To quantify encystment under treated and untreated conditions, amoebae in individual assay wells were resuspended thoroughly and the number of cysts and number of trophozoites in 10-µl samples were counted by the use of a hemocytometer (SKC, Inc.). Cysts and trophozoites are morphologically distinct, making them simple to distinguish with bright-field microscopy (example images are shown in Fig. S1 in the supplemental material). Encystment assays were performed with three independent biological replicates.

[3] = Cytotoxicity dose response, H4; type: cell-based; conditions: human, H4 (glial) cells, unit not given in Table S3, drug concentrations in µM, read-out: CC50 H4 cell line
Protocol: as §1

[4] = Cytotoxicity, mean of all cell lines; type: cell-based; conditions: human, U87, H4, HEK-293T, HFF-1 and Hep-G2 cell lines (mean of all), unit inferred
Protocol: as §1

[5] = Cytotoxicity dose response, HFF-1; type: cell-based; conditions: human, HFF-1 (fibroblast) cells, unit not given in Table S3, drug concentrations in µM, read-out: CC50 HFF-1 cell line
Protocol: as §1

[6] = Cytotoxicity dose response, HEK-293T; type: cell-based; conditions: human, HEK-293T (kidney) cells, unit not given in Table S3, drug concentrations in µM, read-out: CC50 HEK-293T cell line
Protocol: as §1

[7] = test system: B. mandrillaris; assay: Encystment assay, counts of cysts and trophozoites; type: cell-based, Balamuthia mandrillaris; conditions: 72 h of treatment with different drug concentrations
Protocol: as §1

[8] = test system: B. mandrillaris trophozoites; assay: Drug combination dose matrices, trophozoite viability (EOHSA model); type: cell-based, Balamuthia mandrillaris; conditions: 72 h
Protocol: Experiments measuring the effect of drug combinations were carried out similarly to the dose-response experiments described above. B. mandrillaris trophozoites were seeded into opaque 96-well plates (Corning) at a density of 4,000 amoebae per well and then treated with concentrations of nitroxoline that differed across the rows of each plate and with concentrations of either miltefosine or pentamidine isethionate that differed down the columns to generate 7-by-7 dose combination matrices. Final drug concentrations ranged from 0.5 to 10 µM, from 10 to 100 µM, and from 1 to 100 µM for nitroxoline, miltefosine, and pentamidine isethionate, respectively. After incubation with drug or vehicle was performed for 72 h, CTG was added to all assay wells and luminescence was measured with a Promega Glomax-Multi+ plate reader. The percent effect of each drug combination was calculated as the reduction in luminescence value relative to vehicle-only controls. The additive effect of drug combinations was assessed using the excess over highest single agent (EOHSA) model ([76], [77]). […] Drug combination experiments were performed with three independent replicates.

[9] = Cytotoxicity dose response, Hep-G2; type: cell-based; conditions: human, Hep-G2 (liver) cells, unit not given in Table S3, drug concentrations in µM, read-out: CC50 Hep-G2 cell line
Protocol: as §1

[10] = test system: B. mandrillaris trophozoites; assay: Side-by-side dose response, trophozoite viability; type: cell-based, Balamuthia mandrillaris; conditions: 72 h
Protocol: as §1

[11] = test system: B. mandrillaris cysts; assay: Dose response, viability of preformed galactose-induced cysts; type: cell-based, Balamuthia mandrillaris; conditions: 72 h
Protocol: Following the findings of a previous study, encystment of B. mandrillaris was induced by galactose exposure ([74]). B. mandrillaris trophozoites were grown to log phase in axenic media, and galactose was added to reach a final concentration of 12% (vol/vol). Amoebae were cultured in the induction medium until trophozoites were no longer observed (approximately 10 days). Galactose-induced cysts transition back to trophozoites after approximately 3 days of incubation in galactose-free axenic medium. Therefore, all assays with cysts were completed in the induction medium. […] All incubation steps for B. mandrillaris growth were carried out at 37°C with 5% CO2.
as §1

[12] = test system: B. mandrillaris; design: method as in PMID 15347743, PMID 23869955, PMID 16579814; conditions: in vitro; cited from earlier work
[13] = test system: gliomas; design: method as in PMID 25074541; conditions: systemically delivered; cited from earlier work
[14] = test system: B. mandrillaris trophozoites; assay: Primary human brain tissue explant infection model; type: cell-based, Balamuthia mandrillaris; conditions: 35 μM simultaneously with inoculation, removed at 20 h, evaluated at 96 h
[15] = design: method as in PMID 3309832, PMID 118941, PMID 7251741; conditions: adults, 600 to 800 mg/day, cited from earlier work
[16] = test system: B. mandrillaris trophozoites; assay: Secondary screening dose response, B. mandrillaris trophozoites; type: cell-based, Balamuthia mandrillaris; conditions: Balamuthia mandrillaris, 72 h, read-out: B. mandrillaris IC50
Protocol: (§2) Secondary screening of hit compounds consisted of dose-response experiments to measure the toxicity of each compound to B. mandrillaris trophozoites, HFF-1 human fibroblast cells, and H4 human neuroglioma cells. Four 384-well plates were prepared prior to addition of drug as follows: one opaque plate (Corning) seeded with 3,000 HFF-1 cells per well in 60 µl complete media, one opaque plate seeded with 2,000 H4 cells per well in 60 µl complete media, one opaque plate containing 30 µl axenic media, and one clear plate (Corning) containing 30 µl axenic media. Opaque plates were used to measure the viability of trophozoites in the CTG assay, and clear plates were used for microscopic examination of cyst formation. HFF-1 and H4 plates were seeded 24 h prior to drug addition. The selected primary screen hits were added from 10 mM DMSO stocks into wells of all four test plates to reach final concentrations ranging from 0.06 µM to 30 µM (10 concentrations, 2-fold serial dilution). Negative-control wells received concentrations of DMSO corresponding to the amount of DMSO in each tested drug well (reaching a maximum of 0.3% DMSO). B. mandrillaris trophozoites were resuspended in axenic media and added to the plates containing drug dilutions in axenic media at a density of 3,000 amoebae per well in a final volume of 60 µl media. All plates were incubated for 72 h. Throughout the incubation period, the clear-bottom B. mandrillaris plate was monitored for large-scale changes to population encystment in response to drug treatment. After the 72-h incubation, 30 µl of CTG reagent was added to all wells of the opaque assay plates and luminescence was measured with a Promega GloMax-Multi+ plate reader at 2, 4, and 8 h after CTG addition.

[17] = test system: H4 human neuroglioma cells; assay: Secondary screening dose response, toxicity to H4 cells; type: cell-based; conditions: Homo sapiens; 72 h; approximated from dose-response curves
[18] = test system: B. mandrillaris trophozoites; assay: microbe, parasite or virus in culture; type: cell-based, Balamuthia mandrillaris; conditions: Balamuthia mandrillaris, 72 h
[19] = test system: HFF-1 human fibroblast cells; assay: Secondary screening dose response, toxicity to HFF-1 cells; type: cell-based; conditions: Homo sapiens, HFF-1; 72 h; approximated from dose-response curves; read-out: HFF1 IC50
Protocol: as §2

[20] = test system: B. mandrillaris trophozoites; assay: Nitroxoline structure-activity relationship dose response (CellTiter Glo); type: cell-based, Balamuthia mandrillaris; conditions: Balamuthia mandrillaris, 72 h, 8-point dose response in triplicate; read-out: IC50
[21] = 28 µM for 72 h, then drug-free coculture with HFF-1, NRT = no recovery of trophozoites or host cell destruction observed through 28 days
[22] = 56 µM for 72 h, then drug-free coculture with HFF-1, 28-day experiment
[23] = Balamuthia mandrillaris, read-out: IC50, B. mandrillaris trophozoites, 72 h
[24] = Balamuthia mandrillaris, read-out: IC50, B. mandrillaris cysts, preformed cysts, 12% galactose induction medium, 72 h
[25] = preformed cysts, 12% galactose induction medium, read-out: IC50, B. mandrillaris cysts
[26] = 3.5 µM for 72 h, then drug-free coculture with HFF-1, 28-day experiment
[27] = 7 µM for 72 h, then drug-free coculture with HFF-1, 28-day experiment
[28] = 14 µM for 72 h, then drug-free coculture with HFF-1, 28-day experiment

| SMILES | Mean no. of days for host cell clearance ± SE [1, 21] | Mean no. of days for host cell clearance ± SE [1, 22] [days] | concentration that completely eliminated B. mandrillaris populations [1] [µM] | CC50 at 72 h [2] [µM] | CC50 at 72 h [3] [µM] | CC50 at 72 h [4] [µM] | CC50 at 72 h [5] [µM] | CC50 at 72 h [6] [µM] | encystment response [7] | CC50 at 72 h [9] [µM] | IC50 [10, 23] [µM] | IC50 [11, 24] [µM] | IC50 [11, 25] [µM] | inhibition of amoebic growth [12] | Mean no. of days for host cell clearance ± SE [1, 26] [days] | Mean no. of days for host cell clearance ± SE [1, 27] [days] | Mean no. of days for host cell clearance ± SE [1, 28] [days] | IC50 [16] [µM] | IC50 [17] [µM] | inhibition at 20 µM [18] [%] | further results |
| --- | --- | --- | --- | --- | --- | --- | --- | --- | --- | --- | --- | --- | --- | --- | --- | --- | --- | --- | --- | --- | --- |
| CCCCCCCCCCCCCCCCOP(=O)([O-])OCC[N+](C)(C)C [Miltefosine] | 1.5 ± 0.33 days | 3.5 ± 2.64 | 112 | 34.7 | 8.4 | 49 | 67.1 | 68.8 | no substantial number of cysts was observed at any concentration | 66.1 | 63.2 | 76.5 | 76.5 | amoebicidal or amoebistatic activity | – | – | – | – | – | – | Mean no. of days for host cell clearance ± SE ([1]; 84 µM for 72 h, incomplete recovery of trophozoites and destruction of host cells on day 28): >28^b days; Mean no. of days for host cell clearance ± SE ([1]; […] for 72 h, NRT = no recovery of trophozoites or host cell destruction observed through 28 days): NRT^a; Percent inhibition of B. mandrillaris viability ([8]; Fig S2A, miltefosine 10 µM alone): -12%; Percent inhibition of B. mandrillaris viability ([8]; Fig S2A, miltefosine 30 µM alone): -13%; Percent inhibition of B. mandrillaris viability ([8]; Fig S2A, miltefosine 50 µM alone): 19%; Percent inhibition of B. mandrillaris viability ([8]; Fig S2A, miltefosine 60 µM alone): 44%; Percent inhibition of B. mandrillaris viability ([8]; Fig S2A, miltefosine 80 µM alone): 91%; Percent inhibition of B. mandrillaris viability ([8]; Fig S2A, miltefosine 100 µM alone): 96% |
| O=[N+]([O-])c1ccc(O)c2ncccc12 [Nitroxoline, 8-hydroxy-5-nitroquinoline] | NRT^a | – | 28 | 24.9 | 5.6 | 19.3 | 51.8 | 4.9 | increase in both the total number and the proportion of cysts | 9.3 | 2.8 | 15.5 | 15.5 | – | 15.33 ± 0.67 | 19 ± 0.58 | 22 ± 2.08 | 11 | 7 | 100 | efficacy against gliomas [13]: exhibits efficacy against gliomas in mice; protection of human brain tissue explants [14]: do not show signs of tissue damage or loss of cell density; maximal plasma concentrations (Cmax) [15]: ~5600 ng/mL; Cmax ([15]; read-out: maximal plasma concentrations (Cmax)): ~30 µM; IC50 [19]: > 30 µM; IC50 [20]: 4.77 µM; Percent inhibition of B. mandrillaris viability ([8]; Fig S2A, nitroxoline 0.5 µM alone): -4%; Percent inhibition of B. mandrillaris viability ([8]; Fig S2A, nitroxoline 2 µM alone): 28%; Percent inhibition of B. mandrillaris viability ([8]; Fig S2A, nitroxoline 2.5 µM alone): 31%; Percent inhibition of B. mandrillaris viability ([8]; Fig S2A, nitroxoline 3 µM alone): 34%; Percent inhibition of B. mandrillaris viability ([8]; Fig S2A, nitroxoline 5 µM alone): 92%; Percent inhibition of B. mandrillaris viability ([8]; Fig S2A, nitroxoline 10 µM alone): 93%; Percent inhibition of B. mandrillaris viability ([8]; Fig S2B, nitroxoline 0.5 µM alone): 0%; Percent inhibition of B. mandrillaris viability ([8]; Fig S2B, nitroxoline 2 µM alone): 28%; Percent inhibition of B. mandrillaris viability ([8]; Fig S2B, nitroxoline 2.5 µM alone): 33%; Percent inhibition of B. mandrillaris viability ([8]; Fig S2B, nitroxoline 3 µM alone): 32%; Percent inhibition of B. mandrillaris viability ([8]; Fig S2B, nitroxoline 5 µM alone): 91%; Percent inhibition of B. mandrillaris viability ([8]; Fig S2B, nitroxoline 10 µM alone): 92%; IC99, B. mandrillaris trophozoite viability [10]: 7.54 µM; IC50 ([10]; read-out: IC50, B. mandrillaris trophozoites): 2.84 µM |
| N=C(N)c1ccc(OCCCCCOc2ccc(C(=N)N)cc2)cc1 [Pentamidine isethionate] | 15.33 ± 2.56 days | 16 ± 2 | – | 20.7 | 5.7 | 11.1 | 23.4 | 4.8 | increase in both the total number and the proportion of cysts | 0.7 | 9.1 | 26.3 | 26.3 | amoebicidal or amoebistatic activity | 1.33 ± 0.33 | 7 ± 1.15 | 13 ± 2.51 | 11 | 8 | 35 | IC50 [19]: > 30 µM; Percent inhibition of B. mandrillaris viability ([8]; Fig S2B, pentamidine 1 µM alone): -1%; Percent inhibition of B. mandrillaris viability ([8]; Fig S2B, pentamidine 5 µM alone): 32%; Percent inhibition of B. mandrillaris viability ([8]; Fig S2B, pentamidine 10 µM alone): 51%; Percent inhibition of B. mandrillaris viability ([8]; Fig S2B, pentamidine 20 µM alone): 62%; Percent inhibition of B. mandrillaris viability ([8]; Fig S2B, pentamidine 50 µM alone): 68%; Percent inhibition of B. mandrillaris viability ([8]; Fig S2B, pentamidine 100 µM alone): 82% |
